# Laboratory results reported in patent US20140045807A2, “THE USE OF 3-METHOXY-PREGNENOLONE FOR THE PREPARATION OF A DRUG FOR TREATING A TRAUMATIC BRAIN INJURY” (priority 2004, published 2014).
# What was measured:
# [1] = MAP4343 in the brain after TBI (LC-MS/MS); type: in vivo, rat; conditions: 20 mg/kg single injection 2 h after TBI; 4 h after injection; CHI, LFP, CCI models
# Procedure: FIG. 16: 3-methoxy-PREG (MAP4343) concentrations in the brain 4 h after a single injection of MAP4343 (20 mg/kg, injected 2 h after TBI or sham-surgery).
# MAP4343 was dissolved in sesame oil and injected subcutaneously. Two distinct doses of MAP4343 (10 and 20 mg/kg) were tested in each model. The injection took place 2 h after trauma.
# In order to establish whether TBI modifies the passage of MAP4343 into the brain, MAP4343 was measured by liquid chromatography associated to tandem mass spectrometry (LC-MS/MS) in the brain of animals sacrificed 6 h after CHI, LFP or CCI (4 h after MAP4343 single injection).
# In order to establish whether TBI modifies the passage of 3-methoxy-PREG (MAP4343) into the brain, MAP4343 was measured by liquid chromatography coupled to tandem mass spectrometry LC-MS/MS in the brain of animals sacrificed 6 h after CHI, LFP or CCI (4 h after MAP4343 injection).
# [2] = biological target: T1, human progesterone receptor(PR) (Homo sapiens, UniProt P06401); assay: Test of progesterone receptor antagonist activity (luciferase transactivation, HEK293T); type: cell-based; conditions: with progesterone (1 nM), increasing amounts
# T1 construct: expressed in transfected cells; host or cells: HEK293T
# T1 sequence (P06401 1-933): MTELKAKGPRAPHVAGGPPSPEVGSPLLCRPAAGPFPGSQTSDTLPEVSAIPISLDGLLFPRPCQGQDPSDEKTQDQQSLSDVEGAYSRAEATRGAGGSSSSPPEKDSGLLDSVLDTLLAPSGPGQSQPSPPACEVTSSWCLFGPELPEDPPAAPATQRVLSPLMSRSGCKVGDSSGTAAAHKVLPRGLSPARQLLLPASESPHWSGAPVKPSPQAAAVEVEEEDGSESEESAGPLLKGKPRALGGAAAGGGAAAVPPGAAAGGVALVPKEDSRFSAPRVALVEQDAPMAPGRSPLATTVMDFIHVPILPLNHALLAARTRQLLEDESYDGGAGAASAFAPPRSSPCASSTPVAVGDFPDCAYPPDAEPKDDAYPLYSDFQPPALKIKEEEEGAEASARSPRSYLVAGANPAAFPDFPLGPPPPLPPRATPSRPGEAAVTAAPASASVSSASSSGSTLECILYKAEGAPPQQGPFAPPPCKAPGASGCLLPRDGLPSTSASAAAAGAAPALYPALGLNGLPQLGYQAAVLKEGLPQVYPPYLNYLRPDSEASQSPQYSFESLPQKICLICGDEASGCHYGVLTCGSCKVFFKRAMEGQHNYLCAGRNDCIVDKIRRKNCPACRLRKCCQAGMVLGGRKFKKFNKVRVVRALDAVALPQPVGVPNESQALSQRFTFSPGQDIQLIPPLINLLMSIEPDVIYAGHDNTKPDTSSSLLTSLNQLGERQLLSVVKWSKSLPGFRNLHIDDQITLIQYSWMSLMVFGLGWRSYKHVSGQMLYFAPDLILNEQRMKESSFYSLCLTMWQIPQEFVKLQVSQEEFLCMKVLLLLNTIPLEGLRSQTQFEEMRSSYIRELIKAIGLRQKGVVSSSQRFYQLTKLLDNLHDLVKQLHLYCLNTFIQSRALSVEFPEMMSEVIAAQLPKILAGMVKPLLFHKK
# Procedure: (§1) The main experimental setting used is the following: HEK293T cells were transiently transfected, using calcium phosphate precipitation technology, with expression vectors pSG5hPR (which permits expression of human progesterone receptor(PR)), pFC31-luc (contains the luciferase gene under the control of the MMTV promoter, which is in turn activated by binding of a progestin to progesterone receptor) and pcbetagal (which permits expression of betagalactosidase), and cultured during 24 hours with increasing amounts of various compositions: • 1. […] Test of progesterone receptor […] activity: transfected cells were cultured with progesterone (1 nM) and increasing amounts of RU486 (a well-known progesterone receptor antagonist) or 3-methoxy-pregnenolone. • With this setting, a compound with progesterone receptor antagonist activity competes with progesterone for the occupation of progesterone receptor and results in a progressive loss of transactivation activity when the amount of this compound is increased compared to progesterone.
# PC12 cells = assay: Neuritic growth / sprouting in PC12 cells with NGF; type: cell-based, rat; conditions: increasing concentrations, 2, 5 and 8 days of culture (FIG. 3)
# Procedure: Each molecule was tested in three culture wells. Measurements were taken for 200 cells per well using Scion Image software.
# Neurite (neurite) length was measured for 200 cells per well after 2, 5, and 8 days of culture.
# Stimulation of neuritic sprouting is conducted on PC12 cells differentiated in the presence of NGF (10 ng/ml) and the steroid being tested (30 μM) for 3 days. For each condition, the average length of the longest 200 neurites in each cell is measured simultaneously for 3 cultures.
# MAP2 = MAP2 (Homo sapiens, UniProt P11137); assay: Binding (affinity) by displacement of PREG-^3H
# MAP2, sequence (P11137 whole entry): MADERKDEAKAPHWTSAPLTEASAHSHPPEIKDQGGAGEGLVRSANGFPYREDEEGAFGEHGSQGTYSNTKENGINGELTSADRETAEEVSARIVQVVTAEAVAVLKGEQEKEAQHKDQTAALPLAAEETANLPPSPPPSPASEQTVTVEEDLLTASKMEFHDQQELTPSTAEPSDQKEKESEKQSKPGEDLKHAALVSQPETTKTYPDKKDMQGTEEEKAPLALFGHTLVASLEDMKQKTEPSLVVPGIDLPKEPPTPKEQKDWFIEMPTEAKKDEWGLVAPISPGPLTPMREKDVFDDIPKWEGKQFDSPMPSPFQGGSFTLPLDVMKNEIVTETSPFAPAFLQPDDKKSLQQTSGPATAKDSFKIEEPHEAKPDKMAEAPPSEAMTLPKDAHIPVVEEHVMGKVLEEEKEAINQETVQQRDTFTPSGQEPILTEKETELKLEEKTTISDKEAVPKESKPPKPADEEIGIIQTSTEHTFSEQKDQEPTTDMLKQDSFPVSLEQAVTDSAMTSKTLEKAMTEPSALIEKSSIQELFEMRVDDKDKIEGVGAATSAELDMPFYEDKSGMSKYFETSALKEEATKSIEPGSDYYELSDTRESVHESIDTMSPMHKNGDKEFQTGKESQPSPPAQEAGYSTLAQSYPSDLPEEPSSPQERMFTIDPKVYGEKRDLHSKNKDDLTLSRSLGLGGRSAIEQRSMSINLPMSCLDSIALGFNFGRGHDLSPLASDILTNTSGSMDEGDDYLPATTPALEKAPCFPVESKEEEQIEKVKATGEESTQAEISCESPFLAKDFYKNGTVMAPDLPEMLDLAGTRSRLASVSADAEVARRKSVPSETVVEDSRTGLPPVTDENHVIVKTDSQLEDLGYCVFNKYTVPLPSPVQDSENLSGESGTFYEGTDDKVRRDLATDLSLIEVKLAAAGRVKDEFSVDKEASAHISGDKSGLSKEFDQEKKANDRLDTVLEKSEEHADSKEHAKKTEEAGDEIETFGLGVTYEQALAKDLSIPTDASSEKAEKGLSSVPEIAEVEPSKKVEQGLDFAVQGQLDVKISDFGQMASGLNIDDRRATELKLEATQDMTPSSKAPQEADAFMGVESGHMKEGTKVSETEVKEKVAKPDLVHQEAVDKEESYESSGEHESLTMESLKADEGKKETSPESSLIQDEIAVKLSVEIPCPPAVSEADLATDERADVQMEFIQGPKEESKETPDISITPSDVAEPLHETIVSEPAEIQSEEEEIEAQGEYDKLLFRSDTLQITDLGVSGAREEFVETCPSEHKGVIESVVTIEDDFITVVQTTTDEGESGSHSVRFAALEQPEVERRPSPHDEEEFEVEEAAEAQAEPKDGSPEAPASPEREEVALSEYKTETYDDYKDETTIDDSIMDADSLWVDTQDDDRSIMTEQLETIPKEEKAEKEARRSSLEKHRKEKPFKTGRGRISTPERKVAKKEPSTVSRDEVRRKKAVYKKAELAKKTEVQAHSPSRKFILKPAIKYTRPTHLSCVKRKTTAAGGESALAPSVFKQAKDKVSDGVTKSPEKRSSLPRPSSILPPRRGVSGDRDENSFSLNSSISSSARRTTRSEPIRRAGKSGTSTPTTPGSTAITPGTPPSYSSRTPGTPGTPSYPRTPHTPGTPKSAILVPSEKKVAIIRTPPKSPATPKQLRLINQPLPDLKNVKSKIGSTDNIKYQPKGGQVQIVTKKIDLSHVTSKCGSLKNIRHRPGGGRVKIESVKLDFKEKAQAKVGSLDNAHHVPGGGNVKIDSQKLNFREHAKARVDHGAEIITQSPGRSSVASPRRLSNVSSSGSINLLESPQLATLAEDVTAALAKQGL
# Procedure: Binding (affinity) is measured by the displacement of PREG-^3H.
# [3] = biological target: Glucorticoid Receptor (GR) (Homo sapiens, UniProt P04150); assay: Radioligand binding assay, GR; conditions: MAP4343 10 μM; 3 nM [^3H] Dexamethasone; Human HeLa S3 cells
# Glucorticoid Receptor (GR), sequence (P04150 whole entry): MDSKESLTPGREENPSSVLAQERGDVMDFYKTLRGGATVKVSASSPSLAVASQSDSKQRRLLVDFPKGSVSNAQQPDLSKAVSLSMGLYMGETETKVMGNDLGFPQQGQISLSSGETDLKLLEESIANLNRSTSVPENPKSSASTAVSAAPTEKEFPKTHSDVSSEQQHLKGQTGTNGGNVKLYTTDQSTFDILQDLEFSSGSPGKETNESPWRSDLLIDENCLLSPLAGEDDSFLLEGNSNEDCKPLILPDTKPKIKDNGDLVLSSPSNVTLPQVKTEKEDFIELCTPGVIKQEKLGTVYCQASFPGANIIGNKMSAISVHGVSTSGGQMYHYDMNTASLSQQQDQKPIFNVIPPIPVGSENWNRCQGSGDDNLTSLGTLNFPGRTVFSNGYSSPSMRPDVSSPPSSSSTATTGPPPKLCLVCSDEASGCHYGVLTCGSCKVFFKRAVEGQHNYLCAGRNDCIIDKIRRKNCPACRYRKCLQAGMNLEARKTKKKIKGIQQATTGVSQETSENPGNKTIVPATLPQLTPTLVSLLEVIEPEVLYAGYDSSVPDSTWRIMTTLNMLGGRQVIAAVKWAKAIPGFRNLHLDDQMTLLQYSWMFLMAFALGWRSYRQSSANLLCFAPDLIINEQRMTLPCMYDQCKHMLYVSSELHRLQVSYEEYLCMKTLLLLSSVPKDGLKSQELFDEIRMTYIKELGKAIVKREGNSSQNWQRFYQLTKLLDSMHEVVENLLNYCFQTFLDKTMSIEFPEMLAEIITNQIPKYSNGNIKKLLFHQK
# Procedure: Binding affinity of 3-methoxy-PREG (MAP4343) for receptors of steroid hormones was evaluated using radioligand binding assays.
# PSD95 = assay: Western blot of PSD95 in cortex and hippocampus after CCI; type: in vivo, rat; conditions: 20 mg/kg, first injection 2 h post-trauma, day 35, ipsilateral injured cortex and hippocampus, contralateral cortex
# Procedure: FIG. 20: PSD-95 expression, 35 days after TBI, in the left-uninjured and right-injured hemispheres (A: cortex and B: hippocampus) of CCI-injured animals, receiving either vehicle (D0) or MAP4343 (D1: 10 mg/kg and D2:20 mg/kg), 2 h after injury.
# Samples were analyzed by Western-blot at day 35 post-trauma (D35) to evaluate the effects of MAP4343 on: MAP2 (the target of MAP4343 and a modulator of microtubule function), the post-synaptic markers PSD95 and spinophilin, the pre-synaptic marker synaptophysin, and the axonal growth/integrity marker GAP43.
# Western blot was performed on cortex and hippocampus of TBI-injured animals receiving the first injection of MAP4343 (at 10 mg/kg or 20 mg/kg) or vehicle (sesame oil) 2 h after injury.
# The expression level of various neuronal brain markers of plasticity was measured at day 35 post-trauma by western-blots in the cortex and hippocampus of left uninjured and right injured cerebral hemispheres of CCI traumatized animals receiving either vehicle (sesame oil, CCI-D0) or 3-methoxy-PREG (MAP4343) at 10 mg/kg (CCI-D1) or 20 mg/kg (CCI-D2), with first MAP4343 injection 2 h post-trauma.
# [4] = biological target: T1, human progesterone receptor(PR); assay: Test of progesterone receptor agonist activity (luciferase transactivation, HEK293T); type: cell-based; conditions: increasing amounts, 24 hours
# Procedure: as §1
smiles,measurement,setting,value
"CO[C@H]1CC[C@@]2(C)C(=CC[C@H]3[C@@H]4CC[C@H](C(C)=O)[C@@]4(C)CC[C@@H]32)C1 [3-methoxy-PREG, 3β-methoxy-pregna-5-ene-20-one]",MAP4343 concentrations in the brain,[1],concentrations of MAP4343 of significant therapeutic interest reach the brain
same,progesterone receptor antagonist activity,[2],weak progesterone receptor antagonist
same,increase in the length of neurites formed in the presence of NGF,PC12 cells,≤ 500%
same,Affinity (index of binding),MAP2,100% of PREG
same,% inhibition of specific binding,[3],< 25%
same,PSD95 expression,PSD95,increase in PSD95 expression
same,progesterone receptor agonist (transactivation) activity,[4],does not have progesterone receptor agonist activity
